Laboratory results: PubChem BioAssay AID330 (DTP/NCI, 2004)
Several values for one entry are separate records, joined by “and”; a condition that tells them apart may be missing. Equal values may be shown once. Inconclusive results and toxic doses are left out. The calls were made as follows: active = survival T/C of 150% or more; inactive = T/C below 125% in these data.

Test system: P388 leukemia ip, CD2F1 mice, survival T/C
Test: NCI In Vivo Anticancer Drug Screen. Data for tumor model P388 Leukemia (intraperitoneal) in CD2F1 (CDF1) mice
Conditions: endpoint: median survival time, higher = longer survival
Summary of the method: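 Mice carrying the transplanted tumor received test compound or vehicle. Survival was recorded in each group, and the value is the treated-group measurement divided by that of the vehicle-treated control group.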

[1] = dose: 60.0 mg/kg/injection, schedule: Q01DX005 (ip), vehicle: saline with Tween-80
[2] = dose: 120.0 mg/kg/injection, schedule: Q01DX005 (ip), vehicle: saline with Tween-80
[3] = dose: 50.0 mg/kg/injection, schedule: Q01DX009 (ip), vehicle: saline
[4] = dose: 100.0 mg/kg/injection, schedule: Q01DX009 (ip), vehicle: saline
[5] = dose: 200.0 mg/kg/injection, schedule: Q01DX009 (ip), vehicle: saline
[6] = dose: 6.25 mg/kg/injection, schedule: Q01DX009 (ip), vehicle: saline
[7] = dose: 12.5 mg/kg/injection, schedule: Q01DX009 (ip), vehicle: saline
[8] = dose: 50.0 mg/kg/injection, schedule: Q01DX009 (ip), vehicle: Klucel (hydroxypropylcellulose) (HPC)
[9] = dose: 200.0 mg/kg/injection, schedule: Q01DX009 (ip), vehicle: Klucel (hydroxypropylcellulose) (HPC)
[10] = dose: 50.0 mg/kg/injection, schedule: Q01DX005 (ip), vehicle: saline with Tween-80
[11] = dose: 100.0 mg/kg/injection, schedule: Q01DX005 (ip), vehicle: saline with Tween-80
[12] = dose: 200.0 mg/kg/injection, schedule: Q01DX005 (ip), vehicle: saline with Tween-80
[13] = dose: 50.0 mg/kg/injection, schedule: Q01DX005 (ip), vehicle: Klucel (hydroxypropylcellulose) (HPC)
[14] = dose: 100.0 mg/kg/injection, schedule: Q01DX005 (ip), vehicle: Klucel (hydroxypropylcellulose) (HPC)
[15] = dose: 200.0 mg/kg/injection, schedule: Q01DX005 (ip), vehicle: Klucel (hydroxypropylcellulose) (HPC)
[16] = dose: 240.0 mg/kg/injection, schedule: Q01DX005 (ip), vehicle: saline with Tween-80
[17] = dose: 50.0 mg/kg/injection, schedule: Q01DX005 (ip), vehicle: saline
[18] = dose: 100.0 mg/kg/injection, schedule: Q01DX005 (ip), vehicle: saline
[19] = dose: 200.0 mg/kg/injection, schedule: Q01DX005 (ip), vehicle: saline

Measured: T/C

CC(=O)Nc1ccc(C)c2ccccc12
inactive: dose: 75.0 mg/kg/injection, schedule: Q04DX003 (ip), vehicle: saline with Tween-80 100 % of control | dose: 150.0 mg/kg/injection, schedule: Q04DX003 (ip), vehicle: saline with Tween-80 104 % of control | dose: 300.0 mg/kg/injection, schedule: Q04DX003 (ip), vehicle: saline with Tween-80 108 % of control

C=C(C)C12CC(C)C34OC(CCCCCCCCCCC)(OC1C3C1OC1(CO)C(O)C1(O)C(=O)C(C)=CC14C)O2 (stereo not given)
inactive: dose: 0.05 mg/kg/injection, schedule: Q01DX009 (ip), vehicle: distilled water + Tween-80 99 % of control and 100 % of control | dose: 0.06 mg/kg/injection, schedule: Q01DX009 (ip), vehicle: other 100 % of control | dose: 0.1 mg/kg/injection, schedule: Q01DX009 (ip), vehicle: distilled water + Tween-80 100 % of control and 96 % of control | dose: 0.12 mg/kg/injection, schedule: Q01DX009 (ip), vehicle: other 104 % of control | dose: 0.2 mg/kg/injection, schedule: Q01DX009 (ip), vehicle: distilled water + Tween-80 103 % of control and 96 % of control | dose: 0.4 mg/kg/injection, schedule: Q01DX009 (ip), vehicle: distilled water + Tween-80 105 % of control and 119 % of control | dose: 25.0 micrograms/kg/injection, schedule: Q01DX009 (ip), vehicle: other 112 % of control | dose: 50.0 micrograms/kg/injection, schedule: Q01DX009 (ip), vehicle: other 112 % of control

CN(C)B(N(C)C)N(C)C
inactive: [1] 101 % of control | [2] 102 % of control

O=[N+]([O-])c1cc2c(cc1Cl)C1C(C3C2C2(Cl)C(Cl)=C(Cl)C3(Cl)C2(Cl)Cl)C2(Cl)C(Cl)=C(Cl)C1(Cl)C2(Cl)Cl (stereo not given)
inactive: [3] 101 % of control | [4] 109 % of control | [5] 106 % of control

COC(=O)C1=C(C(=O)OC)[C]([Hg][CH3])(C(=O)c2ccccc2)N=N1 (stereo not given)
inactive: [6] 93 % of control | [7] 103 % of control | dose: 25.0 mg/kg/injection, schedule: Q01DX009 (ip), vehicle: saline 90 % of control

O=C(O)CC12CCC(CC1)OC2=O
inactive: [3] 100 % of control | [4] 106 % of control | [5] 97 % of control

CCSc1nc2ccc(Nn3nnnc3-c3ccccc3)cc2s1
inactive: dose: 1.56 mg/kg/injection, schedule: Q01DX009 (ip), vehicle: Klucel (hydroxypropylcellulose) (HPC) 105 % of control and 94 % of control | dose: 3.12 mg/kg/injection, schedule: Q01DX009 (ip), vehicle: Klucel (hydroxypropylcellulose) (HPC) 99 % of control and 100 % of control | dose: 6.25 mg/kg/injection, schedule: Q01DX009 (ip), vehicle: Klucel (hydroxypropylcellulose) (HPC) 93 % of control | dose: 12.5 mg/kg/injection, schedule: Q01DX009 (ip), vehicle: Klucel (hydroxypropylcellulose) (HPC) 89 % of control and 95 % of control | [8] 93 % of control | [9] 92 % of control

Nc1nc(N)c(N=O)c(Nc2ccc(Cl)c(Cl)c2)n1
inactive: dose: 100.0 mg/kg/injection, schedule: Q04DX003 (ip), vehicle: saline with Tween-80 100 % of control | dose: 200.0 mg/kg/injection, schedule: Q04DX003 (ip), vehicle: saline with Tween-80 90 % of control

Fc1cccc(C(Nc2nncs2)Nc2nncs2)c1F
inactive: [10] 99 % of control | [11] 93 % of control | [12] 93 % of control

CCCCCCCCn1c(C)nc2c(cnn2C)c1=O
inactive: [13] 100 % of control | [14] 96 % of control | [15] 100 % of control

[Cl][Ni][Cl]
inactive: dose: 0.78 mg/kg/injection, schedule: Q01DX009 (ip), vehicle: saline 100 % of control | dose: 1.56 mg/kg/injection, schedule: Q01DX009 (ip), vehicle: saline 103 % of control | dose: 3.13 mg/kg/injection, schedule: Q01DX009 (ip), vehicle: saline 100 % of control | [6] 99 % of control | [7] 99 % of control and 101 % of control

O=C(O)Cc1cn2cc(Cl)ccc2n1
inactive: dose: 100.0 mg/kg/injection, schedule: Q01DX001 (ip), vehicle: Klucel (hydroxypropylcellulose) (HPC) 102 % of control | dose: 200.0 mg/kg/injection, schedule: Q01DX001 (ip), vehicle: Klucel (hydroxypropylcellulose) (HPC) 101 % of control | dose: 400.0 mg/kg/injection, schedule: Q01DX001 (ip), vehicle: Klucel (hydroxypropylcellulose) (HPC) 95 % of control

c1ccc2sc(NCCSSCCNc3nc4ccccc4s3)nc2c1
inactive: dose: 25.0 mg/kg/injection, schedule: Q01DX009 (ip), vehicle: other 100 % of control | dose: 50.0 mg/kg/injection, schedule: Q01DX009 (ip), vehicle: other 86 % of control and 92 % of control | dose: 100.0 mg/kg/injection, schedule: Q01DX009 (ip), vehicle: other 90 % of control | dose: 200.0 mg/kg/injection, schedule: Q01DX009 (ip), vehicle: other 90 % of control and 93 % of control

Cc1cn(CCCn2cnc3c(N)ncnc32)c(=O)[nH]c1=O
inactive: [1] 95 % of control | [2] 98 % of control | [16] 107 % of control

CC(O)C(C)(C)S(=O)(=O)CCCc1ccccc1 (stereo not given)
inactive: [1] 107 % of control | [2] 107 % of control | [16] 108 % of control

NC(CCl)=NCC1C2CC3CC(C2)CC1C3 (stereo not given)
inactive: dose: 7.5 mg/kg/injection, schedule: Q01DX005 (ip), vehicle: saline with Tween-80 107 % of control and 116 % of control and 120 % of control | dose: 15.0 mg/kg/injection, schedule: Q01DX005 (ip), vehicle: saline with Tween-80 122 % of control | dose: 30.0 mg/kg/injection, schedule: Q01DX005 (ip), vehicle: saline with Tween-80 117 % of control

CCOC(=O)COc1ccc(C2=C(c3ccccc3)C(C)(C)Oc3cc(OC)ccc32)cc1[N+](=O)[O-]
inactive: [10] 97 % of control | [11] 93 % of control | [12] 86 % of control

O=C1CSC(=S)N1c1ccc(I)cc1
inactive: dose: 50.0 mg/kg/injection, schedule: Q01DX009 (ip), vehicle: suspension in saline 101 % of control | dose: 100.0 mg/kg/injection, schedule: Q01DX009 (ip), vehicle: suspension in saline 101 % of control | dose: 200.0 mg/kg/injection, schedule: Q01DX009 (ip), vehicle: suspension in saline 114 % of control

CCC(=O)Nc1n[nH]c(NC(=O)CC)n1
inactive: [13] 103 % of control | [14] 100 % of control | [15] 100 % of control

Cc1cc(C)nc(NS(=O)(=O)c2ccc(N=Cc3c4ccccc4nc4cc(Cl)ccc34)cc2)n1
inactive: [10] 93 % of control | [11] 93 % of control | [12] 93 % of control

COC(CCCNCCCC(OC)OC)OC
inactive: [17] 102 % of control | [18] 103 % of control | [19] 103 % of control

Clc1ncnc2n[nH]c(Br)c12
inactive: dose: 100.0 mg/kg/injection, schedule: Q04DX002 (ip), vehicle: water 108 % of control | dose: 200.0 mg/kg/injection, schedule: Q04DX002 (ip), vehicle: water 116 % of control | dose: 400.0 mg/kg/injection, schedule: Q04DX002 (ip), vehicle: water 107 % of control

O=C(O)CCC(=O)NC1C(NNC(=O)c2cccnc2)OC(CO)C(O)C1O (stereo not given)
inactive: [10] 101 % of control | [11] 95 % of control | [12] 101 % of control

CNC(=O)NC1OC(CO)C(O)C1O (stereo not given)
inactive: dose: 100.0 mg/kg/injection, schedule: Q01DX001 (ip), vehicle: water 97 % of control | dose: 200.0 mg/kg/injection, schedule: Q01DX001 (ip), vehicle: water 103 % of control | dose: 400.0 mg/kg/injection, schedule: Q01DX001 (ip), vehicle: water 104 % of control

O=C(COc1cc(Cl)c(Cl)cc1Cl)OCCOc1cc(Cl)c(Cl)cc1Cl
inactive: dose: 1.0 mg/kg/injection, schedule: Q01DX009 (ip), vehicle: saline with Tween-80 100 % of control | dose: 2.0 mg/kg/injection, schedule: Q01DX009 (ip), vehicle: saline with Tween-80 100 % of control | dose: 4.0 mg/kg/injection, schedule: Q01DX009 (ip), vehicle: saline with Tween-80 95 % of control

Cc1cc(C2(c3cc(C)c(O)c(C)c3)c3ccccc3-c3ccccc32)cc(C)c1O
inactive: [8] 99 % of control | dose: 100.0 mg/kg/injection, schedule: Q01DX009 (ip), vehicle: Klucel (hydroxypropylcellulose) (HPC) 99 % of control | [9] 96 % of control

CCOCCN(CCOCC)c1ncnc2nc[nH]c12
inactive: [17] 102 % of control | [18] 102 % of control | [19] 98 % of control
